From patent US20160047805A1, “IN SITU-DILUTION METHOD AND SYSTEM FOR MEASURING MOLECULAR AND CHEMICAL INTERACTIONS” (FLIR SYSTEMS, INC., priority 2010, published 2016)

Assays:
[1] = test system: immobilized carbonic anhydrase; test: SPR kinetic analysis, traditional (stepped/sequential multiple) injection method, thermodynamic analysis; details: HEPES buffer saline pH 7.4, 10, 20, 30, 40 C, 1:1 binding model
Description: (§1) In Example 1, the kinetic values for the interaction between carboxybeneze sulfonamide and immobilized carbonic anhydrase were determined using a standard multiple injection method and the in situ dilution method described herein. In the classical approach sequential injection method (FIGS. 4A-4D) a series of individual concentrations were prepared as a serial doubling dilution set starting from a neat concentration of 40 mM giving a total of nine different concentrations. These concentrations were made up in the running buffer (i.e HEPES buffer saline, pH 7.4). […] of each sample was injected at […] and allowed dissociate for 300 seconds. Each concentration was repeated in duplicate and the entire analysis was repeated at four different analysis temperatures (10 C, 20 C, 30 C, 40 C—FIGS. 4A-D, respectively). […] In this case a total of three interaction curves is recorded at three different temperatures representing a minimal data set that can be recorded at least an order faster than the conventional approach even normalized for the number replicates and the number of temperatures used. A single neat sample (40 mM) was injected using the in-situ-dilution injection and a serial doubling dilution of analyte was performed on-the-fly yielding a dose response curve. Dissociation was monitored for 200 seconds. This was repeated at three different temperatures. A blank injection was also included at each temperature for double referencing.
(§2) In both data sets the samples were injected over a protein coated and a non-coated surface to enable double referencing of the binding response curves. The resulting referenced binding response curves were then fitted with a kinetic 1:1 binding interaction model and the fitted curves are shown in red. The kinetic values were then analyzed thermodynamically to determined thermodynamic constants for the interaction and these are shown in Tables 1 and 2 below.

[2] = test system: immobilized carbonic anhydrase; test: SPR kinetic analysis, in situ dilution injection method, thermodynamic analysis; details: three temperatures (10, 25, 35 °C), 1:1 binding model
Description: as §1, §2

ΔG‡ Association ([1]; association): 11.60 kcal/mol
ΔH‡ Association ([1]; association): 3.96 kcal/mol
ΔS‡ Association ([1]; association): −26.1 cal/mol K
ΔG‡ Dissociation ([1]; dissociation): 19.32 kcal/mol
ΔH‡ Dissociation ([1]; dissociation): 14.63 kcal/mol
ΔS‡ Dissociation ([1]; dissociation): −16.0 cal/mol K
ΔG‡ Association ([2]; association): 11.1 kcal/mol
ΔH‡ Association ([2]; association): 4.1 kcal/mol
ΔS‡ Association ([2]; association): −24 cal/mol K
ΔG‡ Dissociation ([2]; dissociation): 18.8 kcal/mol
ΔH‡ Dissociation ([2]; dissociation): 13.1 kcal/mol
ΔS‡ Dissociation ([2]; dissociation): −20 cal/mol K
Structure (SMILES): NS(=O)(=O)c1ccc(C(=O)O)cc1 [carboxybeneze sulfonamide]
